This passage reports IC50 results from patent US10759783B2, “Biaryl inhibitors of Bruton'S tyrosine kinase” (BIOGEN MA INC., priority 2013, dated 2020).

Assay [1] has as its target T1, BTK enzyme (Homo sapiens, UniProt Q06187).
T1 construct: purchased Upstate 14-552
The experiment in a line: In vitro BTK kinase assay: BTK-POLYGAT-LS assay. Format: biochemical. As to conditions: ATP 10 μM, read-out: IC50 (10uMATP). Summed up: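 Human BTK activity was measured with final 10 μM ATP and 100 nM polyGAT substrate in pH 7.5 Tris buffer with 10 mM MgCl2, DTT, Triton X-100 and casein.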

Assay [2] has as its target BTK (phospho-BTK) in human whole blood (Homo sapiens, UniProt Q06187). Put plainly: In vitro PD assay in human whole blood (pBTK assay).

Each structure is given as a SMILES string.

Chain of BTK (phospho-BTK) in human whole blood (Q06187 whole entry): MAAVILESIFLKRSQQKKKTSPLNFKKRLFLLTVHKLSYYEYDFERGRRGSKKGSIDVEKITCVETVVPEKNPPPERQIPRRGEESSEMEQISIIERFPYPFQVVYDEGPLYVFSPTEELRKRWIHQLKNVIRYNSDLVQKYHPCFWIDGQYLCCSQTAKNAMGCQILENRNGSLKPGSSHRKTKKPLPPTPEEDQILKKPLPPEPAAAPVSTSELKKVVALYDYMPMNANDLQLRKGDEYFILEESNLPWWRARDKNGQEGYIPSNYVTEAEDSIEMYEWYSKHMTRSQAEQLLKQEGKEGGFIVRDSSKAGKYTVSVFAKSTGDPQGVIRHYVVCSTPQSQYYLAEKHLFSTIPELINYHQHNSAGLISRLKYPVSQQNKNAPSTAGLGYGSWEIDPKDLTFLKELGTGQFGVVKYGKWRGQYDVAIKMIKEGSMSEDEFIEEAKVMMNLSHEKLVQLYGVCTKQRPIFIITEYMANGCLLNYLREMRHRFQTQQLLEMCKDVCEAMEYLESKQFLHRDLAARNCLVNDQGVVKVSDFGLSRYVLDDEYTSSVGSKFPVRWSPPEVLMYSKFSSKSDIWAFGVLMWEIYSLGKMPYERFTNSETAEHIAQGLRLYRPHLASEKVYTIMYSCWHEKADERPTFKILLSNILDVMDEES
T1 sequence (Q06187 whole entry): as above

As for `CC(C)(C)C1CCN(C(=O)NCc2ccc(-c3ccnc(Nc4cnn(CCO)c4)n3)cc2C(F)(F)F)C1` (centres unmarked) [Example I-209, 3-(tert-butyl)-N-(4-(2-((1-(2-hydroxyethyl)-1H-pyrazol-4-yl)amino)pyrimidin-4-yl)-2-(trifluoromethyl)benzyl)pyrrolidine-1-carboxamide], the IC50 in assay [1] was less than 10 nM; in assay [2] it was less than 500 nM.
With `CC(C)(C)C1CCN(C(=O)NC2CCCc3cc(-c4ccnc(Nc5cnn(CCO)c5)n4)ccc32)C1` (centres unmarked) [Example I-327], the IC50 in assay [1] was less than 10 nM; in assay [2], less than 500 nM.
The corresponding values for `Cc1cc(-c2ccnc(Nc3cnn(C[C@H]4CNCCO4)c3)n2)ccc1CNC(=O)c1cnc(C(C)(C)C)s1` [Example I-128, (R)-2-(tert-butyl)-N-(2-methyl-4-(2-((1-(morpholin-2-ylmethyl)-1H-pyrazol-4-yl)amino)pyrimidin-4-yl)benzyl)thiazole-5-carboxamide] are less than 10 nM and less than 500 nM.
Consider `Cc1cc(-c2cc(Nc3cc4n(n3)CCC4)ncn2)ccc1CNC(=O)c1cnn(C(C)(C)C)c1` [Example I-193, 1-(tert-butyl)-N-(4-(6-((5,6-dihydro-4H-pyrrolo[1,2-b]pyrazol-2-yl)amino)pyrimidin-4-yl)-2-methylbenzyl)-1H-pyrazole-4-carboxamide], for which the IC50 in assay [1] is less than 10 nM; in assay [2], less than 500 nM.
For `CN1CC(n2cc(Nc3nccc(-c4ccc(CNC(=O)c5cc(C(C)(C)C)on5)c(C(F)(F)F)c4)n3)cn2)C1` [Example I-355, 5-tert-butyl-N-[[4-[2-[[1-(1-methylazetidin-3-yl)pyrazol-4-yl]amino]pyrimidin-4-yl]-2-(trifluoromethyl)phenyl]methyl]isoxazole-3-carboxamide], the IC50 in assay [1] is less than 10 nM; in assay [2], less than 500 nM.
Take `COCCn1cc(Nc2nccc(-c3ccc4c(c3)CCCC[C@H]4NC(=O)N3CC(OC(C)C)C3)n2)cn1` [Example I-227, (R)-3-isopropoxy-N-(2-(2-((1-(2-methoxyethyl)-1H-pyrazol-4-yl)amino)-pyrimidin-4-yl)-6,7,8,9-tetrahydro-5H-benzo[7]annulen-5-yl)azetidine-1-carboxamide]: the IC50 in assay [1] was less than 10 nM; in assay [2], less than 500 nM.
The matching figures for `Cn1cc(Nc2nccc(-c3ccc(CNC(=O)N4CC(OC(C)(C)C)C4)c(CCO)c3)n2)cn1` [Example I-190, 3-(tert-butoxy)-N-(2-(2-hydroxyethyl)-4-(2-((1-methyl-1H-pyrazol-4-yl)amino)pyrimidin-4-yl)benzyl)azetidine-1-carboxamide]: less than 10 nM and less than 500 nM.
The corresponding values for `Cc1cc(-c2cc(Nc3cc4c(cn3)CNCC4)ncn2)ccc1CNC(=O)c1cnc(C(C)(C)C)s1` [Example I-267, 2-tert-butyl-N-[[2-methyl-4-[6-(5,6,7,8-tetrahydro-2,7-naphthyridin-3-ylamino)pyrimidin-4-yl]phenyl]methyl]thiazole-5-carboxamide] are less than 10 nM and less than 500 nM.
For the molecule `CNC(=O)C(C)(C)n1cc(Nc2nccc(-c3ccc(CNC(=O)N4CC(OC(C)C)C4)c(C)c3)n2)cn1` [Example I-212, 3-isopropoxy-N-(2-methyl-4-(2-((1-(2-methyl-1-(methylamino)-1-oxopropan-2-yl)-1H-pyrazol-4-yl)amino)pyrimidin-4-yl)benzyl)azetidine-1-carboxamide], the IC50 was less than 10 nM in assay [1] and less than 500 nM in assay [2].
Consider `COCCn1cc(Nc2nccc(-c3ccc(CNC(=O)N4CC(OC(C)C)C4)c(C(F)(F)F)c3)n2)cn1` [Example I-351, 3-isopropoxy-N-[[4-[2-[[1-(2-methoxyethyl)pyrazol-4-yl]amino]pyrimidin-4-yl]-2-(trifluoromethyl)phenyl]methyl]azetidine-1-carboxamide], for which the IC50 is less than 10 nM in assay [1] and less than 500 nM in assay [2].
The corresponding values for `Cc1cc(-c2ccnc(Nc3cnn(C)c3)n2)ccc1CN1Cc2nc(C(C)(C)C)sc2C1=O` [Example I-12, 2-(tert-butyl)-5-(2-methyl-4-(2-((1-methyl-1H-pyrazol-4-yl)amino)pyrimidin-4-yl)benzyl)-4H-pyrrolo[3,4-d]thiazol-6(5H)-one] are less than 10 nM and less than 500 nM.
Take `Cc1cc(-c2cc(Nc3cc4n(n3)CC(=O)N(C)C4)ncn2)ccc1CNC(=O)N1CCC(C(C)(C)C)C1` (centres unmarked) [Example I-281, 3-tert-butyl-N-[[2-methyl-4-[6-[(5-methyl-6-oxo-4,7-dihydropyrazolo[1,5-a]pyrazin-2-yl)amino]pyrimidin-4-yl]phenyl]methyl]pyrrolidine-1-carboxamide]: the figures for the IC50 in assay [1] and in assay [2] were less than 10 nM and less than 500 nM, respectively.
Turning to `COCCn1cc(Nc2nccc(-c3ccc4c(c3)CCCCC4NC(=O)N3CC(OC(C)(C)C)C3)n2)cn1` (centres unmarked) [Example I-175, 3-(tert-butoxy)-N-(2-(2-((1-(2-methoxyethyl)-1H-pyrazol-4-yl)amino)pyrimidin-4-yl)-6,7,8,9-tetrahydro-5H-benzo[7]annulen-5-yl)azetidine-1-carboxamide], the IC50 was less than 10 nM in assay [1] and less than 500 nM in assay [2].
The matching figures for `Cn1cc(Nc2nccc(-c3ccc4c(c3)OCCCC4NC(=O)N3CC(OC(C)(C)C)C3)n2)cn1` (centres unmarked) [Example I-189, 3-(tert-butoxy)-N-(8-(2-((1-methyl-1H-pyrazol-4-yl)amino)pyrimidin-4-yl)-2,3,4,5-tetrahydrobenzo[b]oxepin-5-yl)azetidine-1-carboxamide]: less than 10 nM and less than 500 nM.
The matching figures for `CCn1cc(Nc2nccc(-c3ccc(CNC(=O)N4CC(OC(C)(C)C)C4)c(C)c3)n2)cn1` [Example I-216, 3-(tert-butoxy)-N-(4-(2-((1-ethyl-1H-pyrazol-4-yl)amino)pyrimidin-4-yl)-2-methylbenzyl)azetidine-1-carboxamide]: less than 10 nM and less than 500 nM.
The matching figures for `CC(C)OC1CN(C(=O)NCc2ccc(-c3ccnc(Nc4cnn(CCO)c4)n3)cc2C(F)(F)F)C1` [Example I-301, N-[[4-[2-[[1-(2-hydroxyethyl)pyrazol-4-yl]amino]pyrimidin-4-yl]-2-(trifluoromethyl)phenyl]methyl]-3-isopropoxy-azetidine-1-carboxamide]: less than 10 nM and less than 500 nM.
`CCn1cc(Nc2nccc(-c3ccc(CNC(=O)N4CCC(C(C)(C)C)C4)c(C)c3)n2)cn1` (centres unmarked) [Example I-305, 3-tert-butyl-N-[[4-[2-[(1-ethylpyrazol-4-yl)amino]pyrimidin-4-yl]-2-methyl-phenyl]methyl]pyrrolidine-1-carboxamide]: the IC50 in assay [1] was less than 10 nM; in assay [2] it was less than 500 nM.
The corresponding values for `Cc1cc(-c2ccnc(Nc3cnn(C4CCN(C)CC4)c3)n2)ccc1CNC(=O)N1CC(OC(C)C)C1` [Example I-219, 3-isopropoxy-N-(2-methyl-4-(2-((1-(1-methylpiperidin-4-yl)-1H-pyrazol-4-yl)amino)pyrimidin-4-yl)benzyl)azetidine-1-carboxamide] are less than 10 nM and less than 500 nM.
The matching figures for `Cc1cc(-c2cc(Nc3cc4n(n3)CCN(C)C4C)ncn2)ccc1CNC(=O)N1CCC(C(C)(C)C)C1` (centres unmarked) [Example I-284, 3-tert-butyl-N-[[4-[6-[(4,5-dimethyl-6,7-dihydro-4H-pyrazolo[1,5-a]pyrazin-2-yl)amino]pyrimidin-4-yl]-2-methyl-phenyl]methyl]pyrrolidine-1-carboxamide]: less than 10 nM and less than 500 nM.
The corresponding values for `CCn1cc(Nc2nccc(-c3ccc(CNC(=O)N4CC(OC(C)(C)C)C4)c(C(F)(F)F)c3)n2)cn1` [Example I-203, 3-(tert-butoxy)-N-(4-(2-((1-ethyl-1H-pyrazol-4-yl)amino)pyrimidin-4-yl)-2-(trifluoromethyl)benzyl)azetidine-1-carboxamide] are less than 10 nM and less than 500 nM.
As to `CN1CC(n2cc(Nc3nccc(-c4ccc(CNC(=O)c5cnn(C(C)(C)C)c5)c(Cl)c4)n3)cn2)C1` [Example I-356, 1-tert-butyl-N-[[2-chloro-4-[2-[[1-(1-methylazetidin-3-yl)pyrazol-4-yl]amino]pyrimidin-4-yl]phenyl]methyl]pyrazole-4-carboxamide], the IC50 is less than 10 nM in assay [1] and less than 500 nM in assay [2].
The corresponding values for `Cc1cc(-c2cc(Nc3cc4n(n3)CC(=O)N(C)C4)ncn2)ccc1CNC(=O)c1cnc(C(C)(C)C)s1` [Example I-286, 2-tert-butyl-N-[[2-methyl-4-[6-[(5-methyl-6-oxo-4,7-dihydropyrazolo[1,5-a]pyrazin-2-yl)amino]pyrimidin-4-yl]phenyl]methyl]thiazole-5-carboxamide] are less than 10 nM and less than 500 nM.
The corresponding values for `CC(C)OC1CN(C(=O)NC2CCN(CCO)Cc3cc(-c4ccnc(Nc5cnn(C)c5)n4)ccc32)C1` (centres unmarked) [Example I-346, N-[2-(2-hydroxyethyl)-8-[2-[(1-methylpyrazol-4-yl)amino]pyrimidin-4-yl]-1,3,4,5-tetrahydro-2-benzazepin-5-yl]-3-isopropoxy-azetidine-1-carboxamide] are less than 10 nM and less than 500 nM.
The corresponding values for `Cc1cc(-c2ccnc(Nc3cnn(C)c3)n2)ccc1CNC(=O)c1ccc(C(C)(C)C)cn1` [Example I-6, 5-(tert-butyl)-N-(2-methyl-4-(2-((1-methyl-1H-pyrazol-4-yl)amino)pyrimidin-4-yl)benzyl)picolinamide] are less than 10 nM and 500 to 1500 nM.
On to `Cc1cc(-c2cc(Nc3cc4n(n3)CCCNC4)ncn2)ccc1CNC(=O)c1cnn(C(C)(C)C)c1` [Example I-234, 1-(tert-butyl)-N-(2-methyl-4-(6-((5,6,7,8-tetrahydro-4H-pyrazolo[1,5-a][1,4]diazepin-2-yl)amino)pyrimidin-4-yl)benzyl)-1H-pyrazole-4-carboxamide], for which the IC50 is less than 10 nM in assay [1] and less than 500 nM in assay [2].
